Entries after “also recorded” stand apart in the source; their conditions may differ.
Key:
MALAT1 triple helix [1] = assay: RiboGreen indicator displacement assay (IDA); assay type: binding, human; conditions: for affinity for the MALAT1 triple helix (in words): RiboGreen IDA
Procedure: The protocol was adapted from a previously reported procedure. (Donlic A, et al. (2020) Nucleic Acids Res. 48(14):7653-7664). A serial dilution of the MALAT1 triple helix RNA was performed in HEPES buffer (20 mM HEPES-KOH, 52.6 mM KCl, 0.1 mM MgCl2, pH=7.4) in a 96 well plate in triplicate. […] of each dilution were transferred to a 384 well plate followed by […] of a 500 nM solution of RiboGreen dye in the same buffer (Invitrogen™). The plates were excited at 487 nm (8 nm slit) and emission was recorded at 530 nm (8 nm slit, focal height 11.3 mm) using a CLARIOstar plate reader (BMG labtech). The affinity of the dye for the RNA construct was determined by fitting the raw fluorescence in GraphPad Prism version 8.3.1 for Macintosh (GraphPad Software, La Jolla California USA, (www.graphpad.com)) by fitting to the Log[Agonist] vs. response—variable slope model that using Equation (1) below.
where Y is normalized % change in fluorescence intensity, X is RNA concentration, Bottom is lowest fluorescence % change and Top is highest fluorescence % change. Affinity of the dye for the RNA construct was used as the ideal RNA concentration (174 nM) for small molecule titrations.
A serial dilution of small molecule (0, 0.5 μM, 1.0 μM, 2.5 μM, 5 μM, 7.5 μM, 10.0 μM, 12.5 μM, 25 μM, 50 µM, 75 μM, 100 μM, 125 μM, 150 μM, 250 μM, 500 µM) was performed in HEPES buffer (20 mM HEPES-KOH, 52.6 mM KCl, 0.1 mM MgCl2, pH=7.4) in a 96 well plate in triplicate. Then, 8 μL of each dilution were transferred to a 384 well plate, followed by 8 μL of a 174 nM solution of MALAT1 RNA and […] of RiboGreen™ (Invitrogen™). The RNA was previously annealed by heating to 95° C. for 5 minutes and cooling to 0° C. on ice for 30 minutes. The 384 well plates were shaken for 5 minutes, centrifuged at 4000 rpm for 1 minute, and incubated in the dark for 20 minutes. The plates were excited at 487 nm (8 nm slit) and emission was read at 525 nm (8 nm slit, focal height […]) using a CLARIOstar plate reader (BMG Labtech). Percent fluorescence indicator displacement (% FID) was calculated by subtracting and, subsequently, dividing by the blank wells with RNA-dye complex and no small molecule as shown in Equation (2).
Where Fo is the fluorescence of the blank well with RNA+dye and no small molecule and F is the fluorescence of the well with all three components (RNA+dye+small molecule).
Each technical triplicate was averaged, and the resulting FID values were averaged between three independent experiments. The binding curve and Log (CD50) value was obtained by using a non-linear fit curve (Log[Agonist] vs. response) with variable slope at four parameters (GraphPad Prism Software version for Macintosh 8.3.1, La Jolla, California, USA (www.graphpadprism.com)) as shown in Equation 1. Reported values are averages of three independent experiments=standard deviation.
Given the structural differences between secondary and tertiary structures, where more continuous and complex base-pairing occurs, the design and optimization of an RNA triple helix IDA amenable to HTS was the first focused on. The utility of RiboGreen™ dye was confirmed as an indicator. The RiboGreen™ structure is proprietary, and stoichiometry is thus unconfirmed. Upon assay optimization, the 21-member library was screened using a 16-point titration in three independent replicates (FIG. 2A, FIG. 12A-FIG. 12U).

MALAT1 triple helix [2] = assay: Differential scanning fluorimetry (DSF), thermal stability; assay type: binding, human; conditions: for effect on MALAT1 triplex thermal stability (in words): DSF
Procedure: Differential scanning fluorimetry experiments were performed as previously reported. (Donlic A, et al. (2020) Nucleic Acids Res. 48(14):7653-7664). All experiments were performed in white 96 well plates in a LightCycler® 96 (Roche). In a typical experiment, 4 μM of RNA was annealed in the same buffer used for indicator displacement assays (20 mM HEPES-KOH, 52.6 mM KCl, 0.1 mM MgCl2, pH=7.4) by heating at 95° C. for 3 minutes, snap-cooling on ice for 10 minutes, and leaving the solution at room temperature for 1 hr. Then, 42 μL of this solution was aliquoted to wells and 5 μM of ligand was added (2.5 μL of water, 2.0 μL of DMSO, 0.5 μL of 500 μM small molecule stock). The mixture was left to incubate at room temperature for 5 minutes, after which 3 μL of a 20 μM Quant-iT™ RiboGreen™ (ThermoFisher Scientific) dye stock solution in appropriate buffer was added to each well. The 96 well plate was then sealed with an optically clear foil and centrifuged for 1 minute at 4000 rpm prior to being placed in the instrument. The light cycler program was created by selecting the melting curve method; fluorescence intensity was monitored using the SYBR Green I/HRM dye filter combination (465-510 nm) from 37-98° C. at a ramp rate of 0.01° C./second with 150 acquisitions per° C. Melting profiles were obtained by Tm analysis in the LightCycler® 96 software (SW 1.1).
The MALAT1 triple helix is known to confer stability to the full-length transcript and protect it from RNase-mediated degradation, ultimately resulting in transcript accumulation and aggregation in nuclear speckles. (Brown J A, (2020) WIREs RNA. 11(6):e1598; Wilusz J E, et al. (2012) Genes Dev. 26(21):2392-2407; Brown J A, et al. (2014) Nat Struct Mol Biol. 21(7):633-640; Tycowski K T, et al. (2016) Cell Rep. 15(6):1266-1276). To better understand how the diminazene focused library affects the MALAT1 triplex stability, the entire library was evaluated via differential scanning fluorimetry (DSF) (FIG. 5A). This method allows for rapid assessment of small molecule effects on nucleic acid thermal stability (Silvers R, et al. (2015) Chembiochem. 16(7):1109-1114) in a 96-well plate format, substantially reducing the time and cost associated with traditional UV-melting experiments.
The bi-phasic melting profile distinctive of triple helices is attributed to an initial melting of the Hoogsteen triple base pairs followed by dissociation of Watson-Crick-Franklin base pairs (FIG. 16A-FIG. 16E). (Pilch D S, et al. (1995) Biochemistry. 34(49):16107-16124). At an equimolar ratio of RNA:small molecule, a range of thermal stabilization of the first (Tm1) was observed, but not the second (Tm2) melting peak (FIG. 5A, FIG. 13A-FIG. 13Z). At increasing small molecule concentration, a dose-dependent increase in ΔTm1 but not in ΔTm2 was observed, indicating small molecule interactions in the triplex region and not in the upper stem region (FIG. 15).

MALAT1 triple helix [3] = assay: RNase A enzymatic degradation assay; assay type: biochemical, human; conditions: for stabilizing / destabilizing compound (as listed 'in an aspect'): stabilizing = less, destabilizing = more degradation in an enzymatic assay than control
Procedure: The procedure was adapted from a published protocol for exonucleolytic enzymatic degradation assay. (Donlic A, et al. (2020) Nucleic Acids Res. 48(14):7653-7664). The MALAT1 destabilizing small molecules published by Le Grice (Abulwerdi F A, et al. (2019) ACS Chem Biol. 14(2):223-235) and co-workers SM5 and SM16 were purchased from ChemBridge. For a typical 70 μL reaction, […] of MALAT1 triple helix RNA was annealed in the same buffer used for IDA and DSF experiments (20 mM HEPES-KOH, 52 mM KCl, 0.1 mM MgCl2, pH=7.4) by heating at 95° C. for 3 minutes, snap-cooling on ice for 10 minutes, and leaving the solution at room temperature for 1 hr.
RNase A enzyme (ThermoFisher) was diluted to 1.46 nM and incubated with 1 M NaCl for 30-35 minutes to achieve ssRNA selectivity as reported. (Struhl K, et al. (1989) Current Protocols in Molecular Biology. 8(1):3.13.1-3.13.3). Next, the RNA was mixed with 0.2 μM of a GC-rich DNA duplex, […] of small molecule/DMSO and incubated at room temperature for 20 minutes. Following the incubation, […] of RNase A was added, and the reaction was incubated at 37° C. for 1 hour in a thermal cycler with a heated lid (Eppendorf). 4 μL timepoint aliquots were taken at 0, 5, 10, 30, and 60 minutes, 4 μL of 2×RNA loading dye was added to each aliquot (ThermoFischer Scientific), and samples were stored at −80° C. prior to gel analysis. Reactions were analyzed on pre-cast 15% PAGE-Urea gels (Invitrogen) in 1×TBE buffer. Aliquots were thawed from −80° C. storage and heated to 95° C. for 15 minutes prior to gel loading and […] were loaded in each well. Gels were run for 45 minutes at 180 V, stained with Diamond™ Nucleic Acid dye (Promega), and visualized on an iBright 500 (ThermoFisher). DMSO controls were ran with every set of 4 small molecules to ensure consistency of enzyme activity and RNA integrity. Gel band intensity of the MALAT1 triple helix and DNA loading control were quantified using ImageJ software. (Rueden C T, et al. (2017) BMC Bioinformatics. 18(1):529).
To quantify time-dependent endonucleolytic degradation for each sample, the intensity was normalized using Equation (3), and fold-difference was calculated as listed in Equation (4) as previously reported. (Donlic A, et al. (2020) Nucleic Acids Res. 48(14):7653-7664).
where y is normalized RNA area for a specific time point and the sample (tx), TH (triple helix). Area is the raw band intensity for the RNA in the lane corresponding to time point x for that sample, LC (loading control). Area (t0) is the raw band intensity for the DNA in the lane corresponding to the 0 minute time point for the sample, and LC Area (tx) is the raw band intensity for the DNA in the lane corresponding to time point x for that sample.
where y is fold-difference of the exonucleolytic degradation for the specific sample, with normalized areas for its specific time point x and time point 0 calculated as described in Equation (3). Percent RNA degraded was calculated for every time point using Equation (5).
% RNA degraded=(Normalized area (t0)−Normalized area (tx))*100 (Equation 5)
Experimental results shown in FIG. 6C are plotted as three independent replicates and standard deviation between replicates as error bars. Relative fold change between treated condition and DMSO was calculated from Equation (6).
The library was screened using a more biologically relevant in vitro enzymatic degradation assay. Previous work evaluated the effect on triplex degradation of various ionic buffer conditions (Ageeli A A, et al. (2018) Nucleic Acids Res. 47(3):1468-1481) and a sub-set of DPF small molecules (Donlic A, et al. (2020) Nucleic Acids Res. 48(14):7653-7664) using E. coli RNase R exonuclease as it degrades from 3′ to 5′, reporting on the availability of the poly(A) tail normally sequestered in the triplex construct. […]

[4] = 5-minute time point, relative to DMSO control

Row | Structure (SMILES) | affinity for the MALAT1 triple helix (in words) (MALAT1 triple helix [1]) | effect on MALAT1 triplex thermal stability (in words) (MALAT1 triple helix [2]) | stabilizing / destabilizing compound (as listed 'in an aspect') (MALAT1 triple helix [3]) | stabilizer / destabilizer classification by RNase A degradation (MALAT1 triple helix [3]; [4]) | other results
1 | N=C(NCCc1cccnc1)c1cccc(/N=N/Nc2cccc(C(=N)NCCc3cccnc3)c2)c1 [DMZ-M3] | moderate affinity | negligible thermal stabilization | – | – | –
2 | N=C(NCc1ccco1)c1cccc(/N=N/Nc2cccc(C(=N)NCc3ccco3)c2)c1 [DMZ-M15] | moderate affinity | negligible thermal stabilization | – | – | –
3 | CN(C)c1ccc(CN2CCC(CCNC(=N)c3ccc(/N=N/N(C)c4ccc(C(=N)NCCC5CCN(Cc6ccc(N(C)C)cc6)CC5)cc4)cc3)CC2)cc1 [DMZ-NMe-P38] | – | – | destabilizing | – | –
4 | CN(/N=N/c1ccc(C(=N)NCCC2CCN(Cc3ccccc3)CC2)nc1)c1ccc(C(=N)NCCC2CCN(CC3C=CC=CC3)CC2)nc1 (stereo not drawn) [DMZ-NMe-mPy-P1] | – | – | destabilizing | – | –
5 | N=C(NCc1ccccc1)c1ccccc1/N=N/Nc1ccccc1C(=N)NCc1ccccc1 [DMZ-O4] | no affinity | – | – | – | –
6 | N=C(NCc1ccc(Cl)cc1)c1ccccc1/N=N/Nc1ccccc1C(=N)NCc1ccc(Cl)cc1 [DMZ-O5] | – | – | stabilizing; also recorded: destabilizing | much stronger destabilizing effect | –
7 | N=C(N)c1ccc(/N=N/Nc2ccc(C(=N)N)cc2)cc1 [DMZ-P0, diminazene, reference compound] | – | increases in thermal stability | – | destabilizers | –
8 | CN(C)CCCNC(=N)c1ccc(/N=N/Nc2ccc(C(=N)NCCCN(C)C)cc2)cc1 [DMZ-P1] | – | increases in thermal stability | – | destabilizers | strength class of stabilizer / destabilizer (change in degradation) (MALAT1 triple helix [3]; [4]): weak destabilizer (weak destabilizer (<50% increase in degradation)); effect on Tm1 (ΔTm1, first melting peak) (MALAT1 triple helix [2]; equimolar RNA:small molecule, versus DMSO vehicle): approximately 6.1 °C
9 | N=C(NCc1ccc(Cl)cc1)c1ccc(/N=N/Nc2ccc(C(=N)NCc3ccc(Cl)cc3)cc2)cc1 [DMZ-P5] | – | – | – | – | fold higher affinity, para scaffold versus ortho scaffold (MALAT1 triple helix [1]; subunit R-5: DMZ-P5 versus DMZ-O5): 13 fold
10 | CCCCNC(=N)c1ccc(/N=N/Nc2ccc(C(=N)NCCCC)cc2)cc1 [DMZ-P17] | moderate affinity | negligible thermal stabilization | – | – | –
